Assay results taken from US20100281567A1, “TRANSGENIC PLANTS HAVING ALTERED LEVELS OF AROMATIC AMINO ACIDS AND METABOLITES DERIVED THEREFROM” (priority 2007, published 2010).

Experiments:
Assay type in all cases: in vivo, Arabidopsis thaliana
Arabidopsis plants [1] = assay: Effect of the tryptophan analog 5-methyl tryptophan on growth of transgenic plants; conditions: plants p17, p9 and p5 expressing 35S:PRO-TP-PheA*-3HA; 100 μM, three weeks
Procedure: FIG. 10 illustrates the effect of tryptophan analog on transgenic plants expressing: (i) the 35S:PRO-TP-PheA*-3HA gene (p5, p9; p17); (ii) dominant mutation, resistant to tryptophan analogs due to high levels of tryptophan (5× normal) and anthranilate synthase (2× normal), amt1-1; (iii) control plants expressing an empty Ti vector (con); and (iv) wild type Arabidopsis Colombia ecotype (col). FIG. 10A: Photograph of plants growing for three weeks on zero and 100 μM 5-methyl tryptophan (5MT). FIG. 10B: Quantitative analysis of the number of seedlings whose growth was arrested by 5MT.
To evaluate the biosynthesis level of tryptophan, the effects of tryptophan analog on the transgenic plants of the present invention and on positive-control and control plants were examined. Plants used were as follows: i) plants of the present invention transformed with the 35S:PRO-TP-PheA*-3HA construct; (ii) positive-control transgenic plants having the dominant mutation amt1-1, which are resistant to tryptophan analogs due to high levels of tryptophan (5× normal) and anthranilate synthase (2× normal), the first enzyme of tryptophan biosynthesis; (iii) control plants expressing an empty Ti vector; and (iv) wild type Arabidopsis Colombia ecotype (col). Plants were grown for three weeks on zero and 100 μM 5-methyl tryptophan (5MT).

Arabidopsis plants [2] = assay: Effect of the HPPD inhibitor Isoxaflutole on growth of control and transgenic Arabidopsis plants; conditions: 10 ppb Isoxaflutole in MS medium
Procedure: Plants were grown on MS medium in the presence of 10 ppb Isoxaflutole. […] FIG. 9A: Chlorophyll content. FIG. 9B: Photograph of the plants.
Western blot analysis was performed with anti-HA tag antibodies, in order to identify the mutated plants which are translated the chemeric gene (Stepansky A and Galili G 2003 Plant Physiol 133, 1407-1415). Additionally, T2 generation plants were examined and lines with a single insertion gene were selected based on 3:1 genetic segregation. For testing the growth of the transgenic plants producing elevated concentrations of the compounds of the invention, homozygous PheA* plants were germinated on regular Nitch medium. The 4-Hydroxy-phenylpyruvate dioxygenase (HPPD) inhibitor Isoxaflutole was used as previously described (Rippert P et al. 2004 Plant Physiol., 134:92-100).
Tyrosine is catabolized in plants to a number of metabolites including hydroxyl-phenylpyruvate (p-HPP), homogentistic acid (HGA) and tocopherols. One of the enzymes in the Tyr catabolism pathways is 4-Hydroxy-phenylpyruvate dioxygenase (HPPD), which catalyzes the conversion of p-HPP to HGA. HGA is derived exclusively from the catabolism of tyrosine and is also a substrate for a number of other metabolites, such as tocopherols. […]

Arabidopsis plants [3] = assay: Sensitivity of germination to external application of phenylalanine; conditions: PheA* genotypes compared to control genotype; 4 mM phenylalanine in medium
Procedure: FIG. 11A: Morphological phenotype of the control genotype (a, e) and the PheA* expressing genotypes p5 (b, f), p9 (c, g) and p17 (d, h). Plants were at the age of 10 days (a-d) and two months (e-f). FIG. 11B: Seeds of the above control and transgenic plants were germinated on media lacking (left) or containing (right) 4 mM Phe.
Amino acids are generally toxic to plants when added externally at relatively high concentrations. We therefore also used this trait to further confirm that the PheA* plants overproduce phenylalanine, by testing for sensitivity to external application of phenylalanine.

For `Cc1ccc2[nH]cc(C[C@H](N)C(=O)O)c2c1` [5MT, 5-methyl tryptophan], which growth of plants (Arabidopsis plants [1]) is on record?
The growth of plants was “strongly inhibited”.

How did the chlorotic symptoms (Arabidopsis plants [2]; control plants expressing an empty Ti plasmid) turn out when `CS(=O)(=O)c1cc(C(F)(F)F)ccc1C(=O)c1cnoc1C1CC1` [Isoxaflutole] was run?
Its chlorotic symptoms is “developed chlorotic symptoms”.

What about the chlorotic symptoms (Arabidopsis plants [2]; transgenic plants expressing 35S:PRO-TP-PheA*-3HA) of the same molecule?
The chlorotic symptoms was “remained green”.

For `N[C@@H](Cc1ccccc1)C(=O)O` [phenylalanine], which germination (Arabidopsis plants [3]) is on record?
The germination was “significantly inhibited”.
